How the values were obtained:
[1] = system: adipose fatty acid synthesis; assay: [U-14C]-acetate labeling of adipose tissue from C-75-treated mice; format: in vivo, BALB/c mice
Method: Female BALB/c mice were treated with 0.6 mg of C-75 in 200 μl RPMI, or vehicle control IP (3 per group). After 3 hours, the animals were killed and approximately 5 mg of adipose tissue was labeled with [U-^14C]-acetate, lipids were extracted and counted, [A. Rashid et al., Am. J. Pathol. 150 (1997)]. […] Values represent mean +/−SEM (*P<0.05).
Male BALB/c mice (4 per group) were given 2 g/kg dextrose by oral gavage. After 15 min mice were injected IP with 20 mg/kg C-75 or RPMI vehicle. One hour post-treatment, livers were rapidly removed, frozen and pulverized in liquid nitrogen, HC104 extracted and assayed for malonyl-CoA [J. D. McGarry, M. J. Stark, D. W. Foster., J. Biol. Chem 253, 8291 (1978)]. Intraperitoneal injection of mice with C-75 leads to a 95% reduction in ^14C-acetate incorporation into fatty acids and to a 110% increase in the level of hepatic malonyl-CoA, the principal substrate of FAS. Experiments described in panels B and C were repeated twice.

[2] = Necropsy, histology, plasma alanine aminotransferase and tolerability in treated mice; format: in vivo
Text: Alternatively, the signal from the FAS target tissue to the hypothalamus may be mediated by a humoral signal. This FAS-associated signal appears to be independent of the systemic release of the known feeding inhibitory hormones leptin and insulin, and the pro-inflammatory cytokines tumor necrosis factor-α and interleukin-1β. Nor is it reversed by administration of dexamethasone, a synthetic glucocorticoid.
The effect of C-75 treatment on feeding behavior and body weight in mice is both rapid and dramatic. A single treatment leads to the loss of as much as 20% of total body weight within 24 hours (FIG. 1.2A). This weight loss occurs in a dose dependent manner and persists for a duration that increases with dose. In all cases, treated animals recover lost body weight after the effect of the drug has dissipated, arguing against induction of a persistent wasting.

feeding behavior = assay: Food intake after a single IP injection (metabolic cages); format: in vivo, BALB/c mice; settings: 15 mg/kg, first 24 hours
Method: Male BALB/c mice 19-22 g were weighed, treated by a single intra peritoneal (I.P.) injection and housed in metabolic cages. Body weight (FIG. 1.2A) and food intake (FIG. 1.2B) were monitored at 24 hour intervals.
Inhibitors of fatty acid synthesis would be expected to prevent triglyceride accumulation due to inhibition of de novo fatty acid synthesis and impact body weight in this manner. […] However, the dramatic C-75-induced weight loss cannot be accounted for by a blockade of fatty acid/triglyceride biosynthesis. Rather, the weight loss observed in response to C-75 treatment results primarily from an inhibition of feeding. The loss of adipose mass was accompanied by a reduction of lean body mass typical of that observed in fasting. Administration of 15 mg/kg body weight led to a greater than 90% reduction in food intake over the first 24 hours (FIG. 1.2B). Feeding behavior then returned to normal progressively over a 48-72 hour period as the drug effect dissipated. The role of feeding inhibition in C-75 induced weight loss was confirmed by studies in which forced feeding of the drug treated animals largely reversed the observed weight loss.

3T3-L1 adipocytes = assay: Cytoplasmic triglyceride accumulation in adipocytes in cell culture; format: cell-based; settings: 3T3-L1 adipocytes in cell culture (not shown)
leptin = assay: Serum leptin ELISA; format: in vivo, BALB/c mice; settings: 30 mg/kg IP, 24 hours
Text: One of the primary signals modulating NPY function in feeding control is leptin. This hormone is elevated in the fed state and inhibits NPY production and feeding (Schwartz, et al., 1996, Diabetes, 45:531) in a manner similar to that observed with C-75 treatment. Leptin was an attractive candidate as its primary site of production, white adipose tissue (Zhang, et al., 1994, Nature, 372:425), is a site of fatty acid synthesis and expresses high levels of FAS. To test for increased leptin release as the signal mediating C-75 regulation of NPY, serum leptin levels were assessed in fed (end of light cycle) fasted and C-75-treated mice. BALB/c mice treated with RPMI vehicle (o) or 30 mg/kg C-75 (▪) I.P. and free fed, or fasted ([…]) for 24 hours were weighed, decapitated and exsanguinated. Serum leptin levels were determined using a QUANTIKINE™ murine leptin ELISA (R&D Systems) and plotted against total body weight (FIG. 3A). […] This reduction correlates with the reduction in body weight, presumably body fat, resulting from C-75 treatment FIG. 3A). […] Northern blot analysis of leptin message levels in white adipose tissue from the same animals (performed as described above) supports this observation (data not shown).

serum glucose = assay: Serum glucose in wild-type mice, acute treatment; format: in vivo, BALB/c mice; settings: 30 mg/kg IP, 24 hours, n=7
Method: In addition to obesity, ob/ob mice also develop overt diabetes with significant elevation of blood glucose. C-75 corrected the hyperglycemia observed in vehicle treated mice with a nearly 3-fold reduction in mean serum glucose (FIG. 4A). Male ob/ob mice (n=3) were treated with C-75 or vehicle for 2 weeks (FIGS. 3B and C) and compared with age matched, untreated c57BL/6j mice (+/+). […] The normalization of blood glucose occurred from the profound weight loss in the ob/ob mice as acute treatment of normal mice with C-75 had no effect on serum other than that resulting from inhibition of feeding (FIG. 4B). Male BALB/c mice (n=7) were fasted for 24 hours or injected IP with 30 mg/kg C-75 or RPMI vehicle and allowed free access to food for 24 hours. In both cases, serum was collected at death and assayed for glucose: RefLab™ GLU (Medical Analysis Systems, Inc., Camarillo, Calif.). […] Both panels are representative of 2 experiments.

[3] = Weight loss of C-75-treated versus fasted mice; format: in vivo, BALB/c mice; settings: 30 mg/kg, 24 hours, n=7
Text: To determine whether the weight loss is attributable entirely to suppression of feeding, treatment with a dose of C-75 that completely suppresses feeding was compared with fasting. Both fasting and C-75 led to significant weight loss relative to control; however, in many experiments the C-75 treated mice lost more weight than did the fasted animals (FIG. 2A). The normal response to fasting is to reduce energy utilization to limit depletion of energy stores (Loftus, 1999). If C-75 treatment results in a “perceived fed state”, it may allow maintenance of a normal metabolic rate as well as inhibition of feeding.
Male BALB/c mice 19-21 g were preweighed and treated with vehicle or 30 mg/kg C-75 and allowed free access to food, or were denied all access to food (fasted). After 24 hours, mice were weighed. Change from initial body weight is shown in FIG. 2A, expressed as mean +/±SEM (n=7). C-75 treated mice lost 45% more weight than did the fasted animals.

In the case of `C=C1C(=O)OC(CCCCCCCC)C1C(=O)O` (centres unmarked) [C-75], the “adipose fatty acid synthesis compared to vehicle control” value ([1]; 0.6 mg C-75 IP, 3 hours, female BALB/c mice) is reported as “markedly inhibited”, the “reduction in 14C-acetate incorporation into fatty acids” value ([1]; intraperitoneal injection) is reported as 95% and the tolerability in mice ([2]; single IP treatment) is reported as “well tolerated”. The “histological analysis of tissues from treated mice” value ([2]; single IP treatment (not shown)) was “no indication of adverse pathology”, the “necropsy and histological analysis of all major organs” value ([2]; treated mice) was “no adverse pathology” and the “plasma alanine aminotransferase activity” value ([2]; treated mice) was “unchanged”. For the same molecule, the “reduction in food intake” value (feeding behavior) was “greater than 90%”, the cytoplasmic triglyceride accumulation (3T3-L1 adipocytes) was “markedly reduces cytoplasmic triglyceride accumulation” and the serum leptin levels (leptin) was “reduction in leptin levels”. The “effect on serum glucose in wild-type mice” value (serum glucose) was “no effect on serum glucose beyond that attributable to fasting” and the “more weight lost than fasted animals” value [3] was 45%.
